In brackets after ≈: the same amount, converted by molar mass. Where two headings read alike, the source gives them in different places.
Columns and labels:
[1] = test system: Chinese hamster ovary cells; test: Cytotoxicity, MTT assay, CHO; assay type: cell-based; conditions: Cricetulus griseus, read-out: CHO IC50
[2] = test system: P. falciparum K1 (PfK1) strain; test: In vitro antiplasmodial asexual blood stage activity, pLDH assay, K1; assay type: cell-based; conditions: Plasmodium falciparum
[3] = test system: P. falciparum NF54 (PfNF54) parasites; test: In vitro antiplasmodial asexual blood stage activity, pLDH assay, NF54; assay type: cell-based, Plasmodium falciparum
[4] = physchem; conditions: 25 °C, pH 6.5, aqueous buffer, thermodynamic from solid
[5] = in vitro; conditions: mouse, pH 7.4
[6] = in vivo; conditions: male, Balb/C, mouse, po, 10 mg/kg
[7] = in vitro; conditions: human, pH 7.4
[8] = physchem; conditions: n-octanol/phosphate buffer (1:1), pH 7.4
[9] = K1, 72 h, read-out: Pf ABS IC50 K1
[10] = Plasmodium falciparum, NF54, 72 h, read-out: Pf ABS IC50 NF54
[11] = Plasmodium falciparum, NF54, read-out: PfNF54 IC50
[12] = Plasmodium falciparum, NF54, 72 h, pLDH assay, 72 h, read-out: Pf ABS IC50 NF54
[13] = Plasmodium falciparum, NF54, mean, supplement, read-out: PfNF54 IC50
[14] = K1, mean, supplement, read-out: PfK1 IC50
[15] = K1, pLDH assay, 72 h, read-out: Pf ABS IC50 K1

IC50 [2, 9] | IC50 ([2]; K1, read-out: PfK1 IC50) | IC50 [3, 10] | IC50 [3, 11] | Structure (SMILES) | IC50 [1] | solubility thermodynamic at 20 h ([4]; aqueous solution) | IC50 [3, 12] | IC50 [3, 13] | also measured
1600 nM | 1630 nM | 46 nM | 46.4 nM | CC(C)(O)c1ccc(-c2ccnc3ccc(-c4cccc(CS(C)(=O)=O)c4)nc23)cn1 [Compound 29, 2-[5-[6-[3-(Methylsulfonylmethyl)phenyl]-1,5-naphthyridin-4-yl]pyridin-2-yl]propan-2-ol] | > 50000 nM | – | – | – | –
– | – | – | – | CC(C)(O)c1ccc(-c2ccnc3ccc(-c4ccc(C(F)(F)F)nc4)nc23)cn1 [Compound 32, 2-[5-[6-[6-(Trifluoromethyl)pyridin-3-yl]-1,5-naphthyridin-4-yl]pyridin-2-yl]propan-2-ol] | – | < 5 µM | 210 nM | 207 nM | –
350 nM | 355 nM | 51 nM | 50.8 nM | O[C@H]1CN(c2cc(-c3ccc4nccc(-c5ccnc(C(F)(F)F)c5)c4n3)ccn2)C[C@@H]1O [Compound 16, (3S,4S)-1-[4-[8-[2-(Trifluoromethyl)pyridin-4-yl]-1,5-naphthyridin-2-yl]pyridin-2-yl]pyrrolidine-3,4-diol] | 28000 nM | – | – | – | –
150 nM | 151 nM | 37 nM | 37.6 nM | CC(C)(O)c1ccc(-c2ccnc3ccc(-c4cccc(CC(N)=O)c4)nc23)cn1 [Compound 26, 2-[3-[8-[6-(2-Hydroxypropan-2-yl)pyridin-3-yl]-1,5-naphthyridin-2-yl]phenyl]acetamide] | 30000 nM | – | – | – | –
– | – | 77 nM | 77.4 nM | Cn1ccc(-c2ccc3nccc(-c4ccnc(C(F)(F)F)c4)c3n2)cc1=O [Compound 13, 1-Methyl-4-[8-[2-(trifluoromethyl)pyridin-4-yl]-1,5-naphthyridin-2-yl]pyridin-2-one] | – | – | – | – | –
– | – | 410 nM | 411 nM | Cn1cc(-c2ccc3nccc(-c4cccc(S(C)(=O)=O)c4)c3n2)ccc1=O [Compound 20, 1-Methyl-5-[8-(3-methylsulfonylphenyl)-1,5-naphthyridin-2-yl]pyridin-2-one] | 34000 nM | – | – | – | –
– | – | – | – | CS(=O)(=O)c1cccc(-c2ccc3nccc(-c4ccc(C(=O)N5CC[C@H](N)C5)cc4)c3n2)c1 [Compound 38, [(3S)-3-Aminopyrrolidin-1-yl]-[4-[6-(3-methylsulfonylphenyl)-1,5-naphthyridin-4-yl]phenyl]methanone] | – | 180 µM (≈ 85.1 µg/mL) | 48 nM | 48.6 nM | IC50 ([1]; one biological replicate): 28000 nM
460 nM | 463 nM | 140 nM | 144 nM | CC(C)(O)C(=O)N1CC=C(c2ccc3nccc(-c4ccnc(C(F)(F)F)c4)c3n2)CC1 [Compound 17, 2-Hydroxy-2-methyl-1-[4-[8-[2-(trifluoromethyl)pyridin-4-yl]-1,5-naphthyridin-2-yl]-3,6-dihydro-2H-pyridin-1-yl]propan-1-one] | > 50000 nM | – | – | – | –
– | – | – | – | Cn1cc(-c2ccnc3ccc(-c4cccc(S(C)(=O)=O)c4)nc23)ccc1=O [Compound 33, 1-Methyl-5-[6-(3-methylsulfonylphenyl)-1,5-naphthyridin-4-yl]pyridin-2-one] | – | 55 µM (≈ 21.5 µg/mL) | 96 nM | 95.6 nM | –
– | – | – | – | CC(C)(O)c1cccc(-c2ccc3nccc(-c4ccc(C(C)(C)O)nc4)c3n2)c1 [Compound 30, 2-[3-[8-[6-(2-Hydroxypropan-2-yl)pyridin-3-yl]-1,5-naphthyridin-2-yl]phenyl]propan-2-ol] | – | 55 µM (≈ 22 µg/mL) | 100 nM | 105 nM | IC50 ([1]; one biological replicate): 3000 nM; IC50 [2, 14]: 34.5 nM; IC50 [2, 15]: 34 nM
280 nM | 277 nM | 140 nM | 144 nM | Cn1ccc(-c2ccc3nccc(-c4ccnc(C(C)(C)O)c4)c3n2)cc1=O [Compound 23, 4-[8-[2-(2-Hydroxypropan-2-yl)pyridin-4-yl]-1,5-naphthyridin-2-yl]-1-methylpyridin-2-one] | > 50000 nM | – | – | – | –
– | – | – | – | CC(C)(O)c1ccc(-c2ccnc3ccc(-c4ccnc(N5C[C@H](O)[C@@H](O)C5)c4)nc23)cn1 [Compound 28, (3S,4S)-1-[4-[8-[6-(2-Hydroxypropan-2-yl)pyridin-3-yl]-1,5-naphthyridin-2-yl]pyridin-2-yl]pyrrolidine-3,4-diol] | – | 20 µM (≈ 8.87 µg/mL) | 43 nM | 42.9 nM | IC50 ([1]; one biological replicate): > 50000 nM; IC50 [2, 14]: 52.7 nM; IC50 [2, 15]: 53 nM
– | – | 42 nM | 42.5 nM | C[S+]([O-])c1cccc(-c2ccc3nccc(-c4ccnc(C(F)(F)F)c4)c3n2)c1 (centres unmarked) [Compound 11, 2-(3-Methylsulfinylphenyl)-8-[2-(trifluoromethyl)pyridin-4-yl]-1,5-naphthyridine] | 14000 nM | – | – | – | –
– | – | – | – | Cn1ccc(-c2ccc3nccc(-c4ccc(C(C)(C)O)cc4)c3n2)cc1=O [Compound 25, 4-[8-[4-(2-Hydroxypropan-2-yl)phenyl]-1,5-naphthyridin-2-yl]-1-methylpyridin-2-one] | – | 190 µM (≈ 70.6 µg/mL) | 2100 nM | 2160 nM | –
– | – | – | – | CC(C)(O)c1ccc(-c2ccnc3ccc(-c4cccc(C(C)(C)O)c4F)nc23)cn1 [Compound 31, 2-[2-Fluoro-3-[8-[6-(2-hydroxypropan-2-yl)pyridin-3-yl]-1,5-naphthyridin-2-yl]phenyl]propan-2-ol] | – | 10 µM (≈ 4.17 µg/mL) | 2300 nM | 2360 nM | IC50 [2, 14]: 472 nM; IC50 [2, 15]: 470 nM
– | – | – | – | CC[C@H]1CN2CCc3cc(OC)c(OC)cc3[C@@H]2C[C@@H]1C[C@H]1NCCc2cc(OC)c(OC)cc21 [Emetine, reference compound] | < 3 nM | – | – | – | –
– | – | – | – | Cn1ccc(-c2ccc3nccc(-c4ccc(C(C)(C)O)nc4)c3n2)cc1=O [Compound 24, 4-[8-[6-(2-Hydroxypropan-2-yl)pyridin-3-yl]-1,5-naphthyridin-2-yl]-1-methylpyridin-2-one] | – | 175 µM (≈ 65.2 µg/mL) | 36 nM | 35.9 nM | CLint scaled at 1 µM ([5]; microsomes): < 45.7 mL/min/kg; CLint scaled at 1 µM ([5]; mouse liver microsomes): < 59.4 mL/min/kg; in vivo mouse CLb (total body clearance from whole blood, iv 3 mg/kg): 110 mL/min/kg; in vivo mouse CLu (unbound blood clearance from CLb and plasma protein binding): 379 mL/min/kg; IC50 ([1]; one biological replicate): 12000 nM; bioavailability [6]: 10%; CLint scaled at 1 µM ([7]; microsomes): < 13.4 mL/min/kg; CLint scaled at 1 µM ([7]; pooled human liver microsomes): < 17.4 mL/min/kg; logD at 3 h [8]: 1.98; IC50 [2, 14]: 107 nM; IC50 [2, 15]: 110 nM
1600 nM | 1620 nM | 310 nM | 310 nM | NC(=O)Cc1cccc(-c2ccc3nccc(-c4ccnc(C(F)(F)F)c4)c3n2)c1 [Compound 15, 2-[3-[8-[2-(Trifluoromethyl)pyridin-4-yl]-1,5-naphthyridin-2-yl]phenyl]acetamide] | > 50000 nM | – | – | – | –
– | – | – | – | CS(=O)(=O)c1cccc(-c2ccc3nccc(-c4cccc(S(C)(=O)=O)c4)c3n2)c1 [Compound 18, 2,8-Bis(3-methylsulfonylphenyl)-1,5-naphthyridine] | – | – | 16 nM | 17.2 nM | solubility thermodynamic at 20 h [4]: < 5 µM; IC50 ([1]; one biological replicate): 37000 nM; IC50 ([3]; pLDH assay, 72 h, read-out: Pf ABS IC50 NF54): 17 nM
– | – | – | – | CCN(CC)CCCC(C)Nc1ccnc2cc(Cl)ccc12 (centres unmarked) [Chloroquine, reference compound] | – | – | – | – | IC50 ([3]; Plasmodium falciparum, NF54, 72 h, read-out: PfNF54 IC50): 11 nM

Structure (SMILES) | IC50 [2, 9] | IC50 ([2]; K1, read-out: PfK1 IC50) | IC50 [3, 10] | IC50 [3, 11] | IC50 [1] | solubility thermodynamic at 20 h ([4]; aqueous solution) | IC50 [3, 12] | IC50 [3, 13] | also measured
O=c1cc(-c2ccc3nccc(-c4ccnc(C(F)(F)F)c4)c3n2)ccn1CCO [Compound 14, 1-(2-Hydroxyethyl)-4-[8-[2-(trifluoromethyl)pyridin-4-yl]-1,5-naphthyridin-2-yl]pyridin-2-one] | 340 nM | 344 nM | – | 131 nM | – | – | – | – | –
Cn1ccc(-c2ccnc3ccc(-c4cccc(S(C)(=O)=O)c4)nc23)cc1=O [Compound 34, 1-Methyl-4-[6-(3-methylsulfonylphenyl)-1,5-naphthyridin-4-yl]pyridin-2-one] | 340 nM | 338 nM | – | 173 nM | 44000 nM | 175 µM (≈ 68.5 µg/mL) | – | – | –
CS(=O)(=O)c1cccc(-c2ccc3nccc(-c4cccc(C(=O)N5CCC(O)C5)c4)c3n2)c1 (centres unmarked) [Compound 36, [3-[6-(3-Methylsulfonylphenyl)-1,5-naphthyridin-4-yl]phenyl]-(3-hydroxypyrrolidin-1-yl)methanone] | 240 nM | 244 nM | 220 nM | 217 nM | 33000 nM | 50 µM (≈ 23.7 µg/mL) | – | – | –
CS(=O)(=O)c1cccc(-c2ccc3nccc(-c4ccn(CCO)c(=O)c4)c3n2)c1 [Compound 35, 1-(2-Hydroxyethyl)-4-[6-(3-methylsulfonylphenyl)-1,5-naphthyridin-4-yl]pyridin-2-one] | – | – | 200 nM | 200 nM | > 50000 nM | 195 µM (≈ 82.2 µg/mL) | – | – | –
